Tests used:
IL-1β, IL-6, KC and TNFα = assay: Air sacculitis (MSU-induced air sacs), cytokines in lavage fluid; details: 5 mg/kg (dexamethasone intraperitoneal, colchicine intragastric), lavage fluid supernatant, mean, n = 8
Description: (§1) The sterile MSU crystals were added to 5 mL of sterilized saline before injected into air sacs.
(§2) Male Wistar rats were raised for one week and then randomly divided into 6 groups. Animals were anesthetized and then injected with 24 mL of sterile air in their backs. The animals received the second injection of air 4 days later. On day 7, the rats in the blank group and model group were intragastrically administered with the solvent at a dose of 10 mL/kg; the rats in the dexamethasone group were administered by intraperitoneal injection with dexamethasone at a dose of 5 mg/kg; the rats in the colchicine group were intragastrically administered with colchicine at a dose of 5 mg/kg. […] One hour after administration, the rats in the blank group were injected with 5 mL of saline into the air sacs at the back, and the rats from other groups were injected with 5 mL of MSU crystal suspension (1 mg/mL) into the air sacs at the back. Four hours later, the lavage fluid in the air sacs was taken, and a portion of the lavage fluid was used for cytological analysis. The remaining was centrifuged at 8000 rpm for 15 min, and the supernatant was stored at −80° C. for the detection of cytokines IL-1β, IL-6, KC and TNFα. The test results were shown as mean±SEM and statistically analyzed by t-test.

MSU-induced air sacs = assay: Air sacculitis (MSU-induced air sacs), leukocyte counts in lavage fluid; details: for Leukocyte count: Basophil / Leukocyte count: Eosinocyte / Leukocyte count: Lymphocyte / Leukocyte count: Monocyte / Leukocyte count: Neutrophil / Total cell count: 5 mg/kg (dexamethasone intraperitoneal, colchicine intragastric), lavage fluid 4 h after MSU, mean ± SEM, n = 8;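 as to all read-outs here: male Wistar rats with dorsal air sacs, dosed 1 h before injecting MSU crystal suspension, compared with saline-injected blank and vehicle-treated model groups, cytological analysis of lavage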
Description: as §1, §2

| Structure (SMILES) | IL-1β (IL-1β, IL-6, KC and TNFα) [pg/mL] | KC (IL-1β, IL-6, KC and TNFα) [pg/mL] | TNF-α (IL-1β, IL-6, KC and TNFα) [pg/mL] | Leukocyte count: Basophil (MSU-induced air sacs) | Leukocyte count: Eosinocyte (MSU-induced air sacs) | Leukocyte count: Lymphocyte (MSU-induced air sacs) | Leukocyte count: Monocyte (MSU-induced air sacs) | Leukocyte count: Neutrophil (MSU-induced air sacs) | Total cell count (MSU-induced air sacs) | effect on increase of the total cell count and neutrophil count in the lavage fluid caused by MSU (in words) (MSU-induced air sacs; compound A at the oral doses of 30 mg/kg and 100 mg/kg) |
| --- | --- | --- | --- | --- | --- | --- | --- | --- | --- | --- |
| COc1cc2c(c(OC)c1OC)-c1ccc(OC)c(=O)cc1[C@@H](NC(C)=O)CC2 [Colchicine, colchicine, reference compound] | 112.6 | 9892.7 | 32.2 | 0 ± 0 *10^4/air sacs | 7.8 ± 2.0 *10^4/air sacs | 12.1 ± 2.5 *10^4/air sacs | 171.7 ± 20.1 *10^4/air sacs | 21.3 ± 6.6^$ *10^4/air sacs | 212.9 ± 28.8^$ *10^4/air sacs | significantly inhibit |
| C[C@@H]1C[C@H]2[C@@H]3CCC4=CC(=O)C=C[C@]4(C)[C@@]3(F)[C@@H](O)C[C@]2(C)[C@@]1(O)C(=O)CO [Dexamethasone, dexamethasone, reference compound] | 27.8 | 1653.5 | 6.6 | 0 ± 0 *10^4/air sacs | 4.8 ± 1.6 *10^4/air sacs | 7.5 ± 1.1 *10^4/air sacs | 171.0 ± 19.2 *10^4/air sacs | 13.8 ± 2.4^$ *10^4/air sacs | 197.2 ± 22.8^$$ *10^4/air sacs | – |

From patent US10322132B2, “Prevention or treatment of uratic or gouty diseases” (SHANTON PHARMA CO., LTD., priority 2015, dated 2019)
